Data set [1] is described as follows: Measurement of LogP values by HPLC on reversed phase columns (EEC directive 79/831 Annex V.A8). In kind it is physicochemical. Particulars: for chromatographic logP: method [a]: LC-UV, acidic range. On the procedure:
Calibration was done with straight-chain alkan2-ones (with 3 to 16 carbon atoms) with known LogP values (measurement of LogP values using retention times with linear interpolation between successive alkanones). Lambda-max-values were determined using UV-spectra from 200 nm to 400 nm and the peak values of the chromatographic signals

The test system of the next data set is Alternaria brassicae. Put plainly: In vivo preventive test on Alternaria brassicae (leaf spot on radish or cabbage). Particulars: 144 h, 500 ppm of active ingredient, preventive spray on radish or cabbage, evaluated 6 days after inoculation, read-out: efficacy. On the procedure:
The active ingredients were made soluble and homogenized in a mixture of Dimethyl sulfoxide/Acetone//Tween® 80 and then diluted in water to the desired concentration. The young plants of radish or cabbage were treated by spraying the active ingredient prepared as described above. Control plants were treated only with an aqueous solution of Acetone/Dimethyl sulfoxide/Tween® 80. After 24 hours, the plants were contaminated by spraying the leaves with an aqueous suspension of Alternaria brassicae spores.

The next data set concerns Pyricularia Oryzae. Put plainly: microbe, parasite or virus in culture. In kind it is cell-based. The note with it: 120 h, read-out: efficacy (inhibition of fungal growth).
The subject of a further data set is Botrytis cinerea. Kind of data set: In vivo preventive test on Botrytis cinerea (grey mould). Particulars: 500 ppm of active ingredient, preventive spray on gherkin or cabbage, evaluated 4 to 5 days after inoculation, read-out: efficacy. The procedure: The active ingredients were made soluble and homogenized in a mixture of Dimethyl sulfoxide/Acetone//Tween® 80 and then diluted in water to the desired concentration. The young plants of gherkin or cabbage were treated by spraying the active ingredient prepared as described above. Control plants were treated only with an aqueous solution of Acetone/Dimethyl sulfoxide/Tween® 80. After 24 hours, the plants were contaminated by spraying the leaves with an aqueous suspension of Botrytis cinerea spores.

The test system of the next data set is Alternaria alternata. Kind of data set: Alternaria alternata in vitro cell test. In kind it is cell-based. The note with it: 120 h, 20 ppm of active ingredient, liquid culture, 5 days incubation, read-out: efficacy (inhibition of fungal growth). The procedure: • Solvent: DMSO • Culture medium: 14.6 g anhydrous D-glucose (VWR), 7.1 g Mycological Peptone (Oxoid), 1.4 g granulated Yeast Extract (Merck), QSP 1 liter • Inoculum: spores suspension Fungicides were solubilized in DMSO and the solution used to prepare the required range of concentrations. […] A spore suspension of A. alternata was prepared and diluted to the desired spore density. Fungicides were evaluated for their ability to inhibit spore germination and mycelium growth in liquid culture assay. The compounds were added in the desired concentration to the culture medium with spores. After 5 days incubation, fungi-toxicity of compounds was determined by spectrometric measurement of mycelium growth. Inhibition of fungal growth was determined by comparing the absorbance values in wells containing the fungicides with the absorbance in control wells without fungicides.

The test system of another data set is Sphaerotheca fuliginea. Kind of data set: In vivo preventive test on Sphaerotheca fuliginea (powdery mildew on cucurbits). Particulars: Podosphaera fuliginea, 192 h; 500 ppm of active ingredient; preventive spray on gherkin; evaluated 8 days after inoculation; read-out: efficacy. The procedure: The active ingredients were made soluble and homogenized in a mixture of Dimethyl sulfoxide/Acetone//Tween® 80 and then diluted in water to the desired concentration. The young plants of gherkin were treated by spraying the active ingredient prepared as described above. Control plants were treated only with an aqueous solution of Acetone/Dimethyl sulfoxide/Tween® 80. After 24 hours, the plants were contaminated by spraying the leaves with an aqueous suspension of Sphaerotheca fuliginea spores.

A further data set relates to Pyrenophora teres. Put plainly: In vivo preventive test on Pyrenophora teres (net blotch on barley). Particulars: 240 h, 500 ppm of active ingredient, preventive spray on barley, evaluated 10 days after inoculation, read-out: efficacy. The procedure:
The active ingredients were made soluble and homogenized in a mixture of Dimethyl sulfoxide/Acetone//Tween® 80 and then diluted in water to the desired concentration. The young plants of barley were treated by spraying the active ingredient prepared as described above. Control plants were treated only with an aqueous solution of Acetone/Dimethyl sulfoxide/Tween® 80. After 24 hours, the plants were contaminated by spraying the leaves with an aqueous suspension of Pyrenophora teres spores.

Data set [2] deals with Colletotrichum lindemuthianum. Put plainly: In vivo preventive test on Colletotrichum lindemuthianum (leaf spot on bean). The note with it: 168 h, 500 ppm of active ingredient, preventive spray on bean, evaluated 7 days after inoculation, read-out: efficacy. On the procedure:
The active ingredients were made soluble and homogenized in a mixture of Dimethyl sulfoxide/Acetone//Tween® 80 and then diluted in water to the desired concentration. The young plants of bean were treated by spraying the active ingredient prepared as described above. Control plants were treated only with an aqueous solution of Acetone/Dimethyl sulfoxide/Tween® 80. After 24 hours, the plants were contaminated by spraying the leaves with an aqueous suspension of Colletotrichum lindemuthianum spores.

Where [3] appears, read: 0.1% formic acid, intermediates of formula (4), Table 9.
[4] abbreviates: 0.1% formic acid in water and acetonitrile, compounds of formula (I-1), Table 1.

Marks after values point to notes of the source that are not given here.

In data set [1] (0.1% formic acid, intermediates of formula (3), Table 7), `Cc1ccc(CC(CON2C(=O)c3ccccc3C2=O)NC(=O)c2cc(C)nnc2Oc2cccc(Cl)c2)c(C)c1` (racemic) [Compound 3-01, 3-(3-chlorophenoxy)-N-{(2RS)-1-(2,4-dimethylphenyl)-3-[(1,3-dioxo-1,3-dihydro-2H-isoindol-2-yl)oxy]propan-2-yl}-6-methylpyridazine-4-carboxamide] came in with a chromatographic logP of 4.47. In data set [1] (setting [3]), `Cc1ccc(CC(CON)NC(=O)c2cc(C)nnc2Oc2cccc(Cl)c2)c(C)c1` (racemic) [Compound 4-01, N-[(2RS)-1-(aminooxy)-3-(2,4-dimethylphenyl)propan-2-yl]-3-(3-chlorophenoxy)-6-methylpyridazine-4-carboxamide] had a chromatographic logP of 2.64. With `NOCC(Cc1ccc(Cl)cc1Cl)NC(=O)c1cc(Cl)nnc1Oc1cccc(C2CC2)c1F` (racemic) [Compound 4-02, 6-chloro-3-(3-cyclopropyl-2-fluoro-phenoxy)-N-[(1RS)-1-(aminooxymethyl)-2-(2,4-dichlorophenyl)ethyl]pyridazine-4-carboxamide], in data set [1] (setting [3]), the chromatographic logP was 3.7. In data set [1] (0.1% formic acid, intermediates of formula (14), Table 17), `Cc1ccc(CC(CCl)NC(=O)c2cc(C)nnc2Oc2cccc(Cl)c2)c(Cl)c1` (racemic) [Compound 14-03, N-[(2RS)-1-chloro-3-(2-chloro-4-methylphenyl)propan-2-yl]-3-(3-chlorophenoxy)-6-methylpyridazine-4-carboxamide] returned a chromatographic logP of 4.43. On to `Cc1ccc(CC(CCl)NC(=NO)c2cc(C)nnc2Oc2cccc(Cl)c2)c(Cl)c1` (racemic) [Compound 15-03], for which the chromatographic logP in data set [1] (0.1% formic acid, intermediates of formula (15), Table 15) came to 3.78.

Turning to `Cc1ccc(CC2CON=C(c3cc(Cl)nnc3Oc3cccc(Cl)c3)N2)c(Cl)c1` (racemic) [Compound I-017, (5RS)-3-[6-chloro-3-(3-chlorophenoxy)pyridazin-4-yl]-5-(2-chloro-4-methylbenzyl)-5,6-dihydro-4H-1,2,4-oxadiazine], the chromatographic logP in data set [1] (setting [4]) stood at 4.44. Consider `Cc1cc(C2=NOCC(Cc3ccc(Cl)cc3Cl)N2)c(Oc2cccc(C3(Cl)CC3)c2)nn1` (racemic) [Compound I-022, (5RS)-3-{3-[3-(1-chlorocyclopropyl)phenoxy]-6-methylpyridazin-4-yl}-5-(2,4-dichlorobenzyl)-5,6-dihydro-4H-1,2,4-oxadiazine], for which the pest or weed control at 500 ppm (in the data set with Alternaria brassicae; with Botrytis cinerea; with Sphaerotheca fuliginea; in the data set on Pyrenophora teres; in data set [2]) was 90 to 100% in each case. The inhibition at 20 ppm lay in the range of 70 to 79% with Pyricularia Oryzae and 90 to 100% in the data set on Alternaria alternata. In data set [1] (setting [4]), the chromatographic logP came to 4.51.

As to `Clc1ccc(CC2CON=C(c3cc(Cl)nnc3Oc3cccc(C4(Cl)CC4)c3)N2)c(Cl)c1` (racemic) [Compound I-024, (5RS)-3-{6-chloro-3-[3-(1-chlorocyclopropyl)phenoxy]pyridazin-4-yl}-5-(2,4-dichlorobenzyl)-5,6-dihydro-4H-1,2,4-oxadiazine], the chromatographic logP in data set [1] (setting [4]) stood at 4.93. Turning to `Cc1cc(C(=O)O)c(Oc2cccc(Cl)c2)nn1` [Compound 1-01], the LogP in data set [1] is 1.26^[a]. Take `Cc1cc(C(=O)O)c(Oc2cccc(C)c2F)nn1` [Compound 1-02]: the LogP in data set [1] is 1.32^[a]. Take `Cc1cc(C(=O)O)c(Oc2cccc(C3(F)CC3)c2)nn1` [Compound 1-05]: the LogP in data set [1] was 0.68^[a]. The same measure, in the same setting: as for `Cc1cc(C(=O)OC(C)C)c(Oc2cccc(C3(F)CC3)c2)nn1` [Compound 1-06], the figure is 4.73^[a].

For `Cc1ccc(CC(N)CON2C(=O)c3ccccc3C2=O)c(C)c1.O=C(O)C(F)(F)F` (centres unmarked) [Compound 2-01], in data set [1], the LogP is 1.55[a]. Turning to `O=C(NC(CON1C(=O)c2ccccc2C1=O)Cc1ccc(Cl)cc1Cl)c1cc(Cl)nnc1Oc1cccc(C2CC2)c1F` (centres unmarked) [Compound 3-02], the LogP in data set [1] was 5.27^[a]. On to `Cc1cc(C)cc(CC(N)CCl)c1.Cl` (centres unmarked) [Compound 13-02], for which, in data set [1], the LogP is 1.32[a]. As for `Cc1ccc(C)c(CC(N)CCl)c1.Cl` (centres unmarked) [Compound 13-03], in data set [1], the LogP was 1.13[a]. For the compound `Cc1ccc(CC(N)CCl)c(C)c1.Cl` (centres unmarked) [Compound 13-04], the LogP in data set [1] was 1.24[a].

As to `Cc1ccc(CC(CCl)NC(=O)c2cc(C)nnc2Oc2cccc(Cl)c2)c(Br)c1` (centres unmarked) [Compound 14-01], in data set [1], the LogP was 4.51^[a]. Consider `Cc1ccc(CC(CCl)NC(=O)c2cc(C)nnc2Oc2cccc(C)c2F)c(Cl)c1` (centres unmarked) [Compound 14-02], for which the LogP in data set [1] is 4.43^[a].

In the case of `Cc1cc(C)cc(CC(CCl)NC(=O)c2cc(C)nnc2Oc2cccc(C)c2F)c1` (centres unmarked) [Compound 14-04], the LogP in data set [1] is 4.47^[a]. Still for that read-out and setting: as for `Cc1cc(C)cc(CC(CCl)NC(=O)c2cc(C)nnc2Oc2cccc(Cl)c2)c1` (centres unmarked) [Compound 14-05], the figure is 4.51^[a]; as for `Cc1cc(C)cc(CC(CCl)NC(=O)c2cc(C)nnc2Oc2cccc(Cl)c2F)c1` (centres unmarked) [Compound 14-06], 4.59^[a]; as for `Cc1ccc(C)c(CC(CCl)NC(=O)c2cc(C)nnc2Oc2cccc(Cl)c2F)c1` (centres unmarked) [Compound 14-07], 4.42^[a].

For `Cc1ccc(C)c(CC(CCl)NC(=O)c2cc(C)nnc2Oc2cccc(C)c2F)c1` (centres unmarked) [Compound 14-08], the LogP in data set [1] is 4.37^[a]. In the case of `Cc1ccc(C)c(CC(CCl)NC(=O)c2cc(C)nnc2Oc2cccc(Cl)c2)c1` (centres unmarked) [Compound 14-09], the LogP in data set [1] is 4.37^[a].

For the compound `Cc1ccc(CC(CCl)NC(=O)c2cc(C)nnc2Oc2cccc(C3(F)CC3)c2)c(C)c1` (centres unmarked) [Compound 14-10], in data set [1], the LogP is 4.58^[a]. Same read-out and setting: as for `Cc1ccc(CC(CCl)NC(=O)c2cc(Cl)nnc2Oc2cccc(Cl)c2)c(Cl)c1` (centres unmarked) [Compound 14-12], the figure is 4.97^[a]; as for `Cc1ccc(CC(CCl)NC(=NO)c2cc(C)nnc2Oc2cccc(Cl)c2)c(Br)c1` (centres unmarked) [Compound 15-01], 3.84^[a]. Take `Cc1ccc(CC(CCl)NC(=NO)c2cc(C)nnc2Oc2cccc(C)c2F)c(Cl)c1` (centres unmarked) [Compound 15-02]: the LogP in data set [1] is 3.75^[a]. Turning to `Cc1cc(C)cc(CC(CCl)NC(=NO)c2cc(C)nnc2Oc2cccc(Cl)c2F)c1` (centres unmarked) [Compound 15-04], the LogP in data set [1] was 3.98^[a]. Turning to `Cc1ccc(C)c(CC(CCl)NC(=NO)c2cc(C)nnc2Oc2cccc(Cl)c2F)c1` (centres unmarked) [Compound 15-05], the LogP in data set [1] was 3.84^[a]. Regarding `Cc1ccc(C)c(CC(CCl)NC(=NO)c2cc(C)nnc2Oc2cccc(C)c2F)c1` (centres unmarked) [Compound 15-06], the LogP in data set [1] was 3.74^[a].

For `Cc1ccc(C)c(CC(CCl)NC(=NO)c2cc(C)nnc2Oc2cccc(Cl)c2)c1` (centres unmarked) [Compound 15-07], in data set [1], the LogP is 3.74^[a]. Consider `Cc1ccc(C[C@H]2CON=C(c3cc(C(Cl)Cl)nnc3Oc3cccc(C4CC4)c3F)N2)c(C)c1` [Compound I-021, (5S)-3-[3-(3-cyclopropyl-2-fluorophenoxy)-6-(dichloromethyl)pyridazin-4-yl]-5-(2,4-dimethylbenzyl)-5,6-dihydro-4H-1,2,4-oxadiazine], for which the chromatographic logP in data set [1] (setting [4]) was determined as 5.11.
